In patent publication US6562828B1, “Amidine compounds” (Japan Tobacco Inc., priority 1998, dated 2003) one finds IC50 data, which are given here for 26 compounds.

SMILES strings stand for the structures. Where a name gives a salt, the structure may show the parent alone.

For one assay, the target named is T1, Human FXa (Homo sapiens, UniProt P00742).
T1 construct: Human FXa [Enzyme research Laboratories (USA)] enzyme; purchased Enzyme Research Laboratories (USA)
Briefly: Determination of anti-factor Xa (FXa) activity, synthetic substrate S-2222. In kind it is biochemical. The settings on record: S-2222, 37° C., pH 8.4, read-out: Experimental Example 1: anti-FXa activity, IC50. As to the method: Determination of Anti-factor Xa (FXa) Activity
Human FXa [Enzyme research Laboratories (USA)] enzyme (40 μl, 0.16U/ml) and test compounds (40 l) adjusted to various concentrations were incubated in 0.1M Tris (Tris-hydroxymethyl-aminomethane) buffer (pH 8.4) containing 0.2M sodium chloride (herein to be referred to as 0.1 M tris-0.2M NaCl buffer) (40 μl) at 37° C. for 10 min. A synthetic substrate S-2222 (Daiichi Pure Chemical (Tokyo, Japan), 40 μl) adjusted to 0.8 mM was added and the mixture was incubated at 37° C. for 10 min. The reaction was stopped by addition of 60% acetic acid (40 μl) and absorbance at 405 nm was measured by Model 3550 (BIO-RAD). For the control, the solvent was used instead of the test compound.

For another assay, the target named is T2, Human FIIa (Homo sapiens, UniProt P00734).
T2 construct: purchased Sigma
In words: Determination of anti-factor IIa (FIIa) activity, synthetic substrate S-2238. In kind it is biochemical. As to conditions: S-2238, 37° C., pH 8.4, read-out: Experimental Example 2: anti-FIIa activity, IC50.

T1 sequence (P00742 235-488 limits assumed): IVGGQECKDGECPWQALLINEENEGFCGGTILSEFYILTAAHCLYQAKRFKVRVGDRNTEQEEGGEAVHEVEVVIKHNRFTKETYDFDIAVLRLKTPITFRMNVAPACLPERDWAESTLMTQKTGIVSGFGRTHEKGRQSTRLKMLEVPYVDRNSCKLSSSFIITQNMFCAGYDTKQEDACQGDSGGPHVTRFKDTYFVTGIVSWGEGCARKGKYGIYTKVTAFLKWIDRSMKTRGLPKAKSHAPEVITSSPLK
T1 sequence (P00742 41-179 partner limits assumed): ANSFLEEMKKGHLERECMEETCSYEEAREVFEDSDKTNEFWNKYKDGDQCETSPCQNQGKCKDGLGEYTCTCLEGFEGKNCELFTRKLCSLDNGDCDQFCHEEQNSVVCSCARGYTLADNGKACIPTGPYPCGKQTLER

Regarding `N=C(N)N1CCc2ccc(OCC3CCN(c4ccncc4)CC3)cc2C1` [Example 1, 7-[1-(Pyridin-4-yl)piperidin-4-ylmethoxy]-1,2,3,4-tetrahydroisoquinoline-2-carboxamidine Dihydrochloride], the figures for the IC50 at Human FXa and at Human FIIa were 60 nM and more than 10000 nM, respectively.
On to `N=C(N)N1CCc2ccc(OCC3CCN(c4ccnc5ccccc45)CC3)cc2C1` [Example 2, 7-[1-(Quinolin-4-yl)piperidin-4-ylmethoxy]-1,2,3,4-tetrahydroisoquinoline-2-carboxamidine Dihydrochloride], for which the IC50 on Human FXa was 400 nM; at Human FIIa, more than 10000 nM.
Taken in the same sequence, the figures for `N/C(=N/O)N1CCc2ccc(OCC3CCN(c4ccncc4)CC3)cc2C1` [Example 4, 7-[1-(Pyridin-4-yl)piperidin-4-ylmethoxy]-1,2,3,4-tetrahydroisoquinoline-2-carboxamide Oxime Dihydrochloride] were 600 nM and more than 10000 nM.
On to `CCOC(=O)C1(COc2ccc3c(c2)CN(C(=N)N)CC3)CCN(c2ccncc2)CC1` [Example 6, 4-(2-Amidino-1,2,3,4-tetrahydroisoquinolin-7-yloxymethyl)-1-(pyridin-4-yl)piperidine-4-carboxylic Acid Ethyl Ester Dihydrochloride], for which the IC50 at Human FXa was 80 nM; on Human FIIa it was more than 10000 nM.
On to `CCOC(=O)C1(COc2ccc3c(c2)CN(C(=N)N)CC3)CCN(c2cc(C)nc(C)c2)CC1` [Example 10, 4-(2-Amidino-1,2,3,4-tetrahydroisoquinolin-7-yloxymethyl)-1-(2,6-dimethylpyridin-4-yl)piperidine-4-carboxylic Acid Ethyl Ester Dihydrochloride], for which the IC50 on Human FXa was 700 nM; on Human FIIa, more than 10000 nM.
Turning to `Cc1cc(N2CCC(COc3ccc4c(c3)CN(C(=N)N)CC4)(C(=O)O)CC2)cc(C)n1` [Example 11, 4-(2-Amidino-1,2,3,4-tetrahydroisoquinolin-7-yloxymethyl)-1-(2,6-dimethylpyridin-4-yl)piperidine-4-carboxylic Acid Dihydrochloride], the IC50 was 300 nM on Human FXa and more than 10000 nM on Human FIIa.
`CCOC(=O)C1(COc2ccc3c(c2)CN(C(=N)N)CC3)CCN(c2ccnc(C)c2)CC1` [Example 12, 4-(2-Amidino-1,2,3,4-tetrahydroisoquinolin-7-yloxymethyl)-1-(2-methylpyridin-4-yl)piperidine-4-carboxylic Acid Ethyl Ester Dihydrochloride]: at Human FXa, the half-inhibitory concentration (IC50) is 600 nM.
As for `Cc1cc(N2CCC(COc3ccc4c(c3)CN(C(=N)N)CC4)(C(=O)O)CC2)ccn1` [Example 13, 4-(2-Amidino-1,2,3,4-tetrahydroisoquinolin-7-yloxymethyl)-1-(2-methylpyridin-4-yl)piperidine-4-carboxylic Acid Dihydrochloride], the IC50 at Human FXa is 200 nM; on Human FIIa it was more than 10000 nM.
Taken in the same sequence, the figures for `N=C(N)N1CCc2ccc(OCC3(C(=O)O)CCN(c4ccncn4)CC3)cc2C1` [Example 14, 4-(2-Amidino-1,2,3,4-tetrahydroisoquinolin-7-yloxymethyl)-1-(pyrimidin-4-yl)piperidine-4-carboxylic Acid Dihydrochloride] were 100 nM and more than 10000 nM.
Consider `CCOC(=O)C1(CCOc2ccc3c(c2)CN(C(=N)N)CC3)CCN(c2ccncc2)CC1` [Example 15, 4-[2-(2-Amidino-1,2,3,4-tetrahydroisoquinolin-7-yloxy)ethyl]-1-(pyridin-4-yl)piperidine-4-carboxylic Acid Ethyl Ester Dihydrochloride], for which, on Human FXa, the IC50 came out at 200 nM.
`N=C(N)N1CCc2ccc(OCCC3(C(=O)O)CCN(c4ccncc4)CC3)cc2C1` [Example 16, 4-[2-(2-Amidino-1,2,3,4-tetrahydroisoquinolin-7-yloxy)ethyl]-1-(pyridin-4-yl)piperidine-4-carboxylic Acid Dihydrochloride]: the IC50 at Human FXa is 200 nM; on Human FIIa, more than 10000 nM.
Turning to `N=C(N)N1CCc2ccc(OCC3CCN(CCO)CC3)cc2C1` [Example 21, 7-[1-(2-Hydroxyethyl)piperidin-4-ylmethoxy]-1,2,3,4-tetrahydroisoquinoline-2-carboxamidine Dihydrochloride], the IC50 at Human FXa is 700 nM; at Human FIIa, more than 10000 nM.
Consider `N=C(N)N1CCc2ccc(OCC3CCN(Cc4ccncc4)CC3)cc2C1` [Example 22, 7-[1-(Pyridin-4-ylmethyl)piperidin-4-ylmethoxy-1,2,3,4-tetrahydroisoquinoline-2-carboxamidine Trihydrochloride], for which the IC50 at Human FXa was 800 nM; on Human FIIa it was more than 10000 nM.
Take `CC(=N)N1CCC(COc2ccc3c(c2)CN(C(=N)N)CC3)CC1` [Example 29, 7-(1-Acetimidoylpiperidin-4-ylmethoxy)-1,2,3,4-tetrahydroisoquinoline-2-carboxamidine Dihydrochloride]: the half-inhibitory concentration (IC50) on Human FXa was 500 nM; on Human FIIa, more than 10000 nM.
As for `N=C(N)N1CCc2ccc(OCC3CCN(C(=N)Cc4ccccc4)CC3)cc2C1` [Example 30, 7-(1-Phenylacetimidoylpiperidin-4-ylmethoxy)-1,2,3,4-tetrahydroisoquinoline-2-carboxamidine Dihydrochloride], the values for the IC50 at Human FXa and at Human FIIa were 400 nM and more than 10000 nM, respectively.
Regarding `N=C(N)N1CCc2ccc(OCC3CCN(c4ccc(NC(=O)c5ccccc5)cn4)CC3)cc2C1` [Example 32, N-[2-[4-(2-Amidino-1,2,3,4-tetrahydroisoquinolin-7-yloxymethyl)-piperidin-1-yl]pyridin-5-yl]benzamide Dihydrochloride], the IC50 was 400 nM at Human FXa and more than 10000 nM at Human FIIa.
In the case of `CCOC(=O)/C=C/c1cnccc1N1CCC(COc2ccc3c(c2)CN(C(=N)N)CC3)CC1` [Example 33, 3-[4-[4-(2-Amidino-1,2,3,4-tetrahydroisoquinolin-7-yloxymethyl)-piperidin-1-yl]pyridin-3-yl]-2-propenoic Acid Ethyl Ester Dihydrochloride], the results for the IC50 at Human FXa and on Human FIIa were 300 nM and more than 10000 nM, respectively.
Regarding `COC(=O)c1cnccc1N1CCC(COc2ccc3c(c2)CN(C(=N)N)CC3)CC1` [Example 34, 4-[4-(2-Amidino-1,2,3,4-tetrahydroisoquinolin-7-yloxymethyl)-piperidin-1-yl]pyridine-3-carboxylic Acid Methyl Ester Dihydrochloride], the IC50 is 200 nM at Human FXa and more than 10000 nM on Human FIIa.
In the case of `N#CC1(CCOc2ccc3c(c2)CN(C(=N)N)CC3)CCN(c2ccncc2)CC1` [Example 37, 7-[2-[4-Cyano-1-(pyridin-4-yl)piperidin-4-yl]ethoxy]-1,2,3,4-tetrahydroisoquinoline-2-carboxamidine Dihydrochloride], the IC50 is 40 nM on Human FXa and more than 10000 nM at Human FIIa.
Taken in the same sequence, the figures for `N=C(N)c1ccc2ccc(OCC3(C(=O)O)CCN(c4ccncc4)CC3)c(Cl)c2c1` [Example 39, 4-(2-Amidino-8-chloronaphthalen-7-yloxymethyl)-1-(pyridin-4-yl)piperidine-4-carboxylic Acid Dihydrochloride] were 500 nM and more than 10000 nM.
Consider `CCOC(=O)C1(COc2ccc3ccc(C(=N)N)cc3c2)CCN(c2ccncc2)CC1` [Example 40, 4-(2-Amidinonaphthalen-7-yloxymethyl)-1-(pyridin-4-yl)piperidine-4-carboxylic Acid Ethyl Ester Dihydrochloride], for which the IC50 on Human FXa was 500 nM; at Human FIIa, more than 10000 nM.
With `N=C(N)N1CCc2ccc(SCC3(C(=O)O)CCN(c4ccncc4)CC3)cc2C1` [Example 43, 4-(2-Amidino-1,2,3,4-tetrahydroisoquinolin-7-ylthiomethyl)-1-(pyridin-4-yl)piperidine-4-carboxylic Acid Dihydrochloride], the IC50 was 400 nM on Human FXa and more than 10000 nM on Human FIIa.
Consider `N=C(N)N1CCc2ccc(SCCC3(C(=O)O)CCN(c4ccncc4)CC3)cc2C1` [Example 44, 4-[2-(2-Amidino-1,2,3,4-tetrahydroisoquinolin-7-ylthio)ethyl]-1-(pyridin-4-yl)piperidine-4-carboxylic Acid Dihydrochloride], for which the IC50 on Human FXa is 700 nM; on Human FIIa, more than 10000 nM.
Regarding `CC(=N)N1CCC(Oc2ccc(OCc3nc4cc(C(=N)N)ccc4n3CC(=O)NC[C@H]3CC[C@H](C(=O)O)CC3)cc2)CC1` [Example 53, trans-4-[2-[4-(1-Acetimidoylpiperidin-4-yloxy)phenoxymethyl]-5-amidinobenzimidazol-1-ylacetylaminomethyl]cyclohexanecarboxylic Acid Dihydrochloride], the 50% inhibitory concentration (IC50) was 500 nM at Human FXa and more than 10000 nM on Human FIIa.
In the case of `CCOC(=O)CCc1cnccc1N1CCC(COc2ccc3c(c2)CN(C(=N)N)CC3)CC1` [Example 88, 3-[4-[4-(2-Amidino-1,2,3,4-tetrahydroisoquinolin-7-yloxymethyl)piperidin-1-yl]pyridin-3-]propionic Acid Ethyl Ester Dihydrochloride], on Human FXa, the IC50 stood at 200 nM.
In the case of `N=C(N)c1ccc2c(c1)nc(CN(C(=O)c1ccc(C(=O)O)cc1)c1ccc(OC3CCN(C(=N)NCc4ccccc4)CC3)cc1)n2CC(=O)NC1CCCCC1` [Example 110, N-[5-Amidino-1-(cyclohexylcarbamoylmethyl)benzimidazol-2-ylmethyl]-N-[4-[1-[amino(benzylinino)methyl]piperidin-4-yloxy]phenyl]carbamoylbenzoic Acid Dihydrochloride], the IC50 on Human FXa was determined as 80 nM.

For orientation: IC50 means the concentration needed to halve the response being measured.
